Assay results: patent US20040229205A1, “Compositions for the storage of platelets” (priority 2003, published 2004)

Key:
[1] = system: platelets (P-selectin expression); experiment: P-selectin expression of stored platelets by flow cytometry, basal and after 10 nM thrombin challenge; format: cell-based; conditions: for Difference (% capable of being activated) / % Positive / P-Selectin Expression: five day stored platelets; for retained P-selectin expression activity: thrombin challenge
From the text: Internal protein expression may be measured by conjugation of a molecule with a fluorescent dye, followed by sorting in a fluorescent cell sorter. In general, it is preferable to use two monoclonal antibodies, one that binds a cell surface molecule expressed and a second that binds a cell surface molecule that is expressed only after activation. Each monoclonal antibody is conjugated to a different colored dye, that can be distinguished by spectrofluorometry. In the preferred embodiment, the normally expressed cell surface molecule is GPIIbIIIa; the cell surface molecule expressed after activation is P-selectin. It is well know in the art to make monoclonal antibodies to proteins. U.S. Pat. No. 5,470,738, issued in 1995 to Freilich et al, is one example of a method of making monoclonal antibodies to GPIIIa. Another anti-platelet monoclonal antibody is that to GP IV, as disclosed by U.S. Pat. No. 5,231,025, issued in 1993 to Gralnisch. However, it is most convenient to purchase antibodies commercially from such companies as Becton-Dickinson (Philadelphia).
A basal measurement of spontaneous activation is obtained and the cells are then challenged with an agonist. The difference between cells challenged to activate minus the basal measurement is a measure of cell function. In the preferred embodiment, the agonist is 10 nM thrombin.
P-selectin is an internal protein that is exposed on the surface of the platelet after activation. Once activated, platelets cannot be activated again, that is, they are nonfunctional. Platelets which have aggregated are likewise nonfunctional. Measurement of P-selectin before and after activation with thrombin provides a measure of the ability of the platelets to be activated.
P-selectin expression in response to a challenge of 10 nM thrombin is a highly accurate and quantitative method to assess platelet function using flow cytometry techniques. A monoclonal antibody to the platelet GPIIbIIIa receptor (Becton-Dickinson) is conjugated with green fluorescence, marking all platelets with a green detection. […] About 10,000 to 25,000 platelets are counted and measured for P-selectin expression and the % positive cells are defined as activated platelets that express P-selectin. Platelets that are activated are not capable of being activated a second time; that is, they are essentially nonfunctional.
It was proposed years ago by Dawson (Transfusion 21:215-218. (1981)) that ribose at the concentration of 15 mM is beneficial to stored whole blood. It was assumed that ribose functioned by raising the energy levels of the cells, as discussed at length in U.S. Pat. No. 6,159,942. […] However, it should be noted that the platelet storage milieu is an austere environment, lacking the homeostatic and buffering mechanisms of the kidneys, lungs and livers of an intact organism. Various concentrations of D-Ribose were tested to determine the optimum level for platelet storage. […] Platelet concentrate bags were obtained from a local transfusion center within two hours of collection from the donor. The platelets were either supplemented with the D-Ribose cocktail directly into the bag or the platelets were divided into a series of 10 tubes into each of which two ml of platelets were added. Platelet function was assessed by ATP secretion, platelet aggregation, P-selectin expression, platelet count and pH. Platelet function was measured every 24 hours. The bags and tubes were placed on a rotating wheel at room temperature for the duration of the experiment.
For the concentration test, platelets were stored for five days in standard platelet storage solution at room temperature and gentle agitation with or without various levels of ribose. At five days the P-selectin expression test was performed.

[2] = system: platelets (ATP secretion); experiment: ATP secretion of stored platelets in response to 10 nM thrombin (luciferin/luciferase); format: cell-based
From the text: Yet another measure of platelet function is the secretion of ATP. Platelets that are able to function well are able to secrete ATP while cells that have already been activated or have lost funciton in other ways cannot secrete ATP.
The platelet dense granules shown in FIG. 1 contain ATP which is released in response to platelet agonists such as thrombin, collagen or adenosine diphosphate (ADP). The release reaction of ATP from platelets serves as another method to monitor platelet function. There are many methods to analyze ATP. A convenient method is the well known luciferin/luciferase reaction (Sigma Chemical, St. Louis). This assay is derived from the light producing system of the firefly. The substrate luciferin, in the presence of ATP, is cleaved by the enzyme luciferase, accompanied by the emission of light. The emitted light is measured by a photomultiplier tube
Platelet suspensions containing about 350 units in 40 μl were mixed with 10 μl luciferin/luciferase reagent. An agonist is injected. As the platelet dense granules release ATP, the bioluminescent reaction occurs, which is measured by the photomultiplier tube. […] The rate of reaction is recorded and as platelet function decays, the rate decays. Total ATP was measured by lysing the cells with Triton and determining ATP content. The results as presented in Table III are expressed as intact rate of ATP secretion.

platelets (aggregation) = experiment: Platelet aggregation on thrombin challenge (optical density / aggregometer); format: cell-based
From the text: Another parameter of platelet function is the ability to aggregate when challenged by an agonist. The platelet suspension is dense and milky white. Aggregation and subsequent settling of the aggregates can be estimated visually, or measured with a densitometer.
As a second measure of the effect of ribose on platelets, platelet aggregation was estimated. Platelet aggregation is a crucial function of platelet activity; platelets that cannot aggregate are essentially nonfunctional. Platelets were stored as above. The optical density of the suspension was measured before and after thrombin challenge.
Platelet aggregation was measured with a platelet aggregometer (Chronolog, Inc., Irvine, Calif.). Platelet-rich, turbid suspensions were stirred in a cuvette and the transmittance of light through the sample relative to a platelet poor blank is recorded. When a aggregating agent is added, activated platelets with exposed fibrinogen receptors (GPIIbIIIa) are brought in close contact with each other in a medium containing calcium and fibrinogen and form increasingly large platelet aggregates, accompanied by a decrease in turbidity. The change in optical density was then translated by the instrument to percent aggregation. Simple stated, as platelets clump, more light passes through the cuvette.

bacteria = experiment: Bacterial contamination of platelet storage solution by colony counts in Petri dishes; conditions: D-Ribose added to the storage cocktail
Procedure: (§1) Bacterial contamination was measured by colony counts in standard Petri dishes that had been inculated with the test solution. It is assumed that the millimolar glucose concentration in most platelet storage solutions contributes to the growth of bacteria. As noted above, Murphy (Table II) discloses a glucose-free solution for the storage of platelets. Elimination of reduction of glucose levels from millimolar to micromolar concentrations has a profound effect in reducing bacterial contamination, however, platelet function at five days, as measured by ATP secretion and P-selectin expression, was poor.

[3] = system: platelets (adhesion to adventitia of human renal artery); experiment: Platelet adhesion assay in microflow chamber on human renal artery section; format: cell-based; conditions: 1.5 mM D-ribose solution, eight days of storage
Procedure: The ability of platelets to aggregate as a measure of function can also be assayed by ability to adhere to and […] on tissue, such as the adventitia and intima of arteries. Normal, healthy, functional platelets will show deposition and attachment onto tissue whereas compromised, poorly functional or nonfunctional platelets will have decreased levels of platelet attachment. Platelet rich plasma (PRP) was prepared from a random donor bag of platelets, which were harvested and resuspended in plasma at a concentration of at least 10^6 platelets per milliliter. On Day 1, the platelets were allowed to stand at room temperature for eight hours and were then tested in the platelet adhesion assay. Fresh frozen human renal artery was sectioned and placed flat on a microscope slide. A microflow chamber was constructed to pull PRP across the section at a defined flow rate and defined shear rate. The direction of flow is adventitia, through the media and intima and into the lumen, as illustrated in FIG. 10. Functional platelets will adhere to the adventitia and form accretion zones that initiate at the adventitia (the outside of the blood vessel) and extend across the media and intima. Non-functional platelets are unable to adhere to the adventitia. Therefore, the adhesion assay is a sensitive test of platelet function. Following the baseline test, a portion of the platelet suspension was set aside as control, without additional solution added. Another portion of the platelets were suspended in a solution containing: [table]

[4] = 30 grams of ribose each day, subjects; cited from earlier work
platelets = experiment: Preservation of platelet function in stored platelets, methods of examples 1 to 6; format: cell-based
Procedure: It is known that other pentoses may have similar effects as D-Ribose, either through intracellular conversion to riboe or a direct effect. Ribulose-5-phosphate, xylulose-5-phosphate and xylitol were tested for preservation of activity in stored platelets according to the methods of examples 1 to 6.
as §1

[5] = 1.5 mM down to 150 pM, analyzed every 24 hours

## O=C[C@H](O)[C@H](O)[C@H](O)CO [D-Ribose]
[1]; 150 pM D-Ribose
  Difference (% capable of being activated): 10.9%
[1]; 150 pM D-Ribose, + thrombin
  % Positive: 42.6%
  P-Selectin Expression: 15475
[1]; 150 pM D-Ribose, basal
  % Positive: 31.7%
  P-Selectin Expression: 11260
[1]; 150 pM D-Ribose, five days storage
  preserving function (P-selectin expression test): ineffective
[1]; 150 nM D-Ribose, 8 days of storage
  retained activity: greater than 75%
[1]; 150 nM D-Ribose, 10 days of storage
  retained activity: greater than 50%
[1]; 150 nM D-Ribose
  Difference (% capable of being activated): 60.6%
[1]; 150 nM D-Ribose, + thrombin
  % Positive: 65.7%
  P-Selectin Expression: 41480
[1]; 150 nM D-Ribose, basal
  % Positive: 5.1%
  P-Selectin Expression: 2465
[1]; 150 nM D-Ribose, five days storage
  retained P-selectin expression activity: about 60%
[1]; 153 nM D-Ribose, three days storage
  retention of activation activity on activation with thrombin: 78.8%
[1]; 153 nM D-Ribose, three days storage, basal
  positive (activated) cells: 5%
[1]; 15 μM D-Ribose
  Difference (% capable of being activated): 58.3%
[1]; 15 μM D-Ribose, + thrombin
  % Positive: 64.4%
  P-Selectin Expression: 34960
[1]; 15 μM D-Ribose, basal
  % Positive: 6.1%
  P-Selectin Expression: 3275
[1]; 1.5 mM D-Ribose
  Difference (% capable of being activated): 34.4%
[1]; 1.5 mM D-Ribose, + thrombin
  % Positive: 60.0%
  P-Selectin Expression: 32400
[1]; 1.5 mM D-Ribose, basal
  % Positive: 40.4%
  P-Selectin Expression: 21605
[1]; 1.5 mM D-Ribose, five days storage
  retained P-selectin expression activity: about 60%
[2]; 1.5 nM D-Ribose
  preservative effect on ATP secretion: no preservative effect
[2]; 150 nM D-Ribose
  rise of total ATP content of treated cells: more than 10%
[2]; 150 nM D-Ribose, day 1, 10 nM thrombin
  Rate of ATP secretion: 1.9
[2]; 150 nM D-Ribose, day 1, cells lysed with Triton
  Total ATP: 3.0
[2]; 150 nM D-Ribose, day 3, 10 nM thrombin
  Rate of ATP secretion: 1.9
[2]; 150 nM D-Ribose, day 3, cells lysed with Triton
  Total ATP: 3.2
[2]; 150 nM D-Ribose, day 5, 10 nM thrombin
  Rate of ATP secretion: 1.7
[2]; 150 nM D-Ribose, day 5, cells lysed with Triton
  Total ATP: 3.4
[2]; 150 nM D-Ribose, day 7, 10 nM thrombin
  Rate of ATP secretion: 1.6
[2]; 150 nM D-Ribose, day 7, cells lysed with Triton
  Total ATP: 3.4
[2]; 15 mM D-Ribose
  effect on ATP secretion: no effect
  toxicity to platelets: toxic to platelets
[2]; optimal amounts of D-Ribose (150 nM), day 7
  ATP secretion activity, % of baseline: > 80%
[2]; optimal amounts of D-Ribose (150 nM), five days
  mean ATP secretion activity, % of baseline: 90%
Platelets (aggregation); day 3
  platelet samples with aggressive aggregation response to 10 nM thrombin: all five
Platelets (aggregation); day five
  platelet samples responding (aggregation) to 10 nM thrombin: four out of five
Platelets (aggregation); day seven
  platelet samples able to aggregate in response to thrombin challenge: three out of five
Platelets (aggregation); platelets stored in 150 pM D-Ribose
  aggregation on thrombin challenge: no aggregation
Platelets (aggregation); platelets stored in 150 nM D-Ribose
  aggregation on thrombin challenge: strong aggregation
Platelets (aggregation); platelets stored in 15 μM D-Ribose
  aggregation on thrombin challenge: very weak effect
Platelets (aggregation); platelets stored in 1.5 mM D-Ribose
  aggregation on thrombin challenge: no aggregation
bacteria
  incidence of bacterial contamination: lower incidence of bacterial contamination
[3]; 30 seconds of flow
  platelet adhesion: very early platelet adhesion at the adventitia
[3]; 2.5 minutes of flow
  platelet adhesion and accretion: significant platelet adhesion and accretion zones
[3]; 4.5 minutes of flow
  platelet adhesion and accretion: formed a large platelet mass at the adventitia
[4]
  tolerance of ingestion: no ill effects

## O=C(CO)[C@H](O)[C@H](O)COP(=O)(O)O [Ribulose-5-phosphate]
[1]; [5]
  P-selectin expression in response to thrombin challenge versus controls: No difference from controls
[2]; [5]
  ATP secretion in response to 10 nM thrombin versus controls: No difference from controls
Platelets (aggregation); [5]
  platelet aggregation versus controls: No difference from controls

## OC[C@@H](O)[C@H](O)[C@@H](O)CO [xylitol]
platelets
  preservation of platelet function: some benefit

## O=C(CO)[C@@H](O)[C@H](O)COP(=O)(O)O [xylulose-5-phosphate, Xylulose-5-phosphate]
[1]; five-day treated platelets
  P-selectin expression in response to 10 nM thrombin challenge: 67.7%
  P-selectin spontaneous expression: 37.5%
[2]; five days storage
  ATP secretion, retention of basal value: 64.5%
Platelets (aggregation); five days storage
  platelet aggregation: weak
